Results from paper PMC6261997, “Synergistic enzymatic and bioorthogonal reactions for selective prodrug activation in living systems” (Nature Communications, 2018).

Assay: Self-assembly and hydrogelation on addition of alkaline phosphatase (ALP)
Format: physicochemical
Protocol: The synthesis of the assembly precursor (NapK(Tz)YpF, 2, Fig. 2a) was straightforward (see Supplementary Methods for a detailed protocol). Because KYF was determined to be an excellent self-assembly motif in a tri-peptide census survey, we constructed our assembling molecules based on this sequence. The conjugation of a strong π–π stacking moiety, namely, a naphthalene group, to the N terminus may further enhance the self-assembly potential of this molecule. Phosphorylation on tyrosine (Y) enabled the responsiveness of this motif to phosphatase. All of these components were sequentially conjugated via typical Fmoc-based solid-phase peptide synthesis (SPPS) to yield NapKYpF (1). The capability of self-assembly and hydrogelation of 1 was confirmed by the addition of 10 U mL^−1 alkaline phosphatase (ALP) into a solution of 1 (Supplementary Fig. 1). The dephosphorylated product of 1 formed transparent hydrogels with a network of uniform nanofibres (Supplementary Fig. 2), and the critical hydrogelation concentration was 1.0 mg mL^−1. The ε-amine of Lys on 1 was conjugated with the Tz derivative Tz-COOH (2-(4-(6-methyl-1,2,4,5-tetrazin-3-yl)phenyl) acetic acid) via an NHS-mediated ester–amide exchange reaction to yield 2. […] Upon the addition of ALP (10 U mL^−1) into the solution of 2, a transparent purple hydrogel was formed within 1 h (Fig. 2b inset), and the critical hydrogelation concentration was 1.0 mg mL^−1 (Supplementary Fig. 3). Similar to the formation of a typical hydrogel, investigation by transmission electron microscopy (TEM) confirmed the existence of numerous uniform nanofibres, each with a diameter of approximately 12 nm, which was close to that of hydrogel 1 (Fig. 2b).

With Cc1nnc(-c2ccc(CC(=O)NCCCCC(NC(=O)Cc3ccc4ccccc4c3)C(=O)NC(Cc3ccc(OP(=O)(O)O)cc3)C(=O)NC(Cc3ccccc3)C(=O)O)cc2)nn1 (centres unmarked) [compound 2, NapK(Tz)YpF] the “time to formation of hydrogel” value (ALP 10 U mL^−1) was at most 1 h and the critical hydrogelation concentration (after addition of 10 U mL^−1 ALP (dephosphorylated product)) was 1.0 mg/mL.
